Measurements reported in PubChem BioAssay (NCI).
Several values for one entry are separate records, joined by “and”; a condition that tells them apart may be missing. Equal values may be shown once.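 Grown in 96-well plates, cells were treated for 48 hours with each compound at five concentrations. Insufficient inhibition: endpoint recorded as highest concentration tested. GI50 is the concentration that inhibits growth by half. TGI: concentration producing complete growth inhibition.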

Key:
Test in all cases: DTP human tumour cell line panel, 48 h
TK-10 renal = tested on: TK-10 renal
LXFL 529 NSCLC = tested on: LXFL 529 NSCLC
DLD-1 colon = tested on: DLD-1 colon
UACC-62 melanoma = tested on: UACC-62 melanoma
CAKI-1 renal = tested on: CAKI-1 renal
MALME-3M melanoma = tested on: MALME-3M melanoma
SF-268 CNS = tested on: SF-268 CNS
MDA-MB-231 breast = tested on: MDA-MB-231 breast
DU-145 prostate = tested on: DU-145 prostate
BT-549 breast = tested on: BT-549 breast

Compound | TGI (TK-10 renal) | TGI (LXFL 529 NSCLC) [µM] | TGI (DLD-1 colon) [µM] | TGI (UACC-62 melanoma) | TGI (CAKI-1 renal) | TGI (MALME-3M melanoma) | TGI (SF-268 CNS) | GI50 (TK-10 renal) [µM] | GI50 (LXFL 529 NSCLC) [µM] | GI50 (DLD-1 colon) [µM] | GI50 (UACC-62 melanoma) [µM] | GI50 (CAKI-1 renal) [µM] | GI50 (MALME-3M melanoma) [µM] | GI50 (SF-268 CNS) [µM] | GI50 (MDA-MB-231 breast) [µM] | TGI (MDA-MB-231 breast) | GI50 (DU-145 prostate) [µM] | TGI (DU-145 prostate) | GI50 (BT-549 breast) [µM] | TGI (BT-549 breast)
Cc1cc(Cl)ccc1N1C(=O)C(=O)C(c2nc3ccccc3o2)C(=O)C1=O | > 100 µM | > 100 | > 100 | > 100 µM | > 100 µM | > 100 µM | > 100 µM | – | – | – | – | – | – | – | – | – | – | – | – | –
Cc1cccc(Cl)c1NC(=O)c1cccc([N+](=O)[O-])c1O | – | > 100 | > 100 | 93.9 µM | > 100 µM | 84.7 µM | 96.5 µM | – | – | – | – | – | – | – | – | – | – | – | – | –
C[CH2][Ge]([CH2]C)([CH2]C)[O]C(=O)C([O][Ge]([CH2]C)([CH2]C)[CH2]C)c1ccccc1 (stereo unspecified) | > 100 µM | 44.9 | > 100 | 30.7 µM | 44.9 µM | > 100 µM | > 100 µM | 47.6 | 9.67 | 20.3 | 14.5 | 19.2 | 16.8 | 25.8 | – | – | – | – | – | –
CC(=O)OCC1OC(n2c(=S)n(-c3ccccc3)c(=O)c3cc(Br)ccc32)C(OC(C)=O)C(OC(C)=O)C1OC(C)=O (stereo unspecified) | – | > 100 | > 100 | > 100 µM | > 100 µM | > 100 µM | > 100 µM | – | – | – | – | – | > 100 | – | – | – | – | – | – | –
Cc1cccc2cc3cccc(C(=O)NCCN(C)C)c3nc12 | 7.88 µM | 10.6 | 5.11 | 0.386 µM | 0.327 µM | 1.11 µM | 3.84 µM | – | – | – | – | – | – | – | – | – | – | – | – | –
NC1=NCC(c2ccccn2)C1c1ccc(F)cc1 (stereo unspecified) | > 100 µM | > 100 | > 100 | > 100 µM | > 100 µM | > 100 µM | > 100 µM | – | – | – | – | – | – | – | – | – | – | – | – | –
NCCn1cnc2nc(NC(=O)c3ccccc3)[nH]c(=O)c21 | > 100 µM | > 100 | > 100 | – | – | > 100 µM | > 100 µM | – | – | – | – | – | – | – | – | – | – | – | – | –
COc1cc(/C=C2\NC(=S)C3Cc4c(OC)c(C)c(OC)c(OC)c4C2N3C)c(OC)c(C)c1OC (stereo unspecified) | > 100 µM | > 100 | > 100 | > 100 µM | > 100 µM | > 100 µM | > 100 µM | – | – | – | – | – | – | – | – | – | – | – | – | –
Cn1ccc2c3c(=O)cc[nH]c3ccc21 | > 100 µM | – | – | > 100 µM | 95.1 µM | > 100 µM | > 100 µM | > 100 | – | – | > 100 | 32.4 | > 100 | > 100 | > 100 | > 100 µM | > 100 | > 100 µM | > 100 | > 100 µM
Cc1nnc2n1N=C(c1ccc(-c3ccc([N+](=O)[O-])cc3)o1)CS2 | > 100 µM | > 100 | > 100 | > 100 µM | > 100 µM | > 100 µM | > 100 µM | – | – | – | – | – | – | – | – | – | – | – | – | –
CC1=C/C(O)CC(=O)Cc2nc(co2)C(=O)N2CCC=C2C(=O)OC(C(C)C)C(C)/C=C\C(=O)NC/C=C\1 (stereo unspecified) | > 100 µM and 96.1 µM | – | – | > 57.6 µM and 32.3 µM | > 84.1 µM and 70.1 µM | > 65.9 µM and 25.2 µM | 54.4 µM and 43.4 µM | > 100 | – | – | 20.1 | 44.4 | 23.1 | 20.9 | 27.1 | > 71.4 µM and 61.4 µM | 18.5 | 45.2 µM and > 100 µM | – | > 47.9 µM and 51.6 µM
Oc1c(Cl)cc(CN(Cc2cc(Cl)c(O)c(Cl)c2)C2CCCCC2)cc1Cl | > 100 µM | – | – | > 100 µM | > 100 µM | > 100 µM | > 100 µM | – | – | – | – | – | – | – | – | > 100 µM | – | > 100 µM | – | > 100 µM
